In publication PMC3134342 (Journal of Experimental Botany, 2011):

Legend:
At-A/N-InvA = biological target: T1, At-A/N-InvA (Arabidopsis thaliana, UniProt Q9FXA8); test: inhibition of sucrose hydrolysis, fructose by HPAEC-PAD; format: biochemical; settings: 100 mM sucrose, 50 mM potassium phosphate, pH 8.2, 30 °C
T1 sequence (Q9FXA8 79-616): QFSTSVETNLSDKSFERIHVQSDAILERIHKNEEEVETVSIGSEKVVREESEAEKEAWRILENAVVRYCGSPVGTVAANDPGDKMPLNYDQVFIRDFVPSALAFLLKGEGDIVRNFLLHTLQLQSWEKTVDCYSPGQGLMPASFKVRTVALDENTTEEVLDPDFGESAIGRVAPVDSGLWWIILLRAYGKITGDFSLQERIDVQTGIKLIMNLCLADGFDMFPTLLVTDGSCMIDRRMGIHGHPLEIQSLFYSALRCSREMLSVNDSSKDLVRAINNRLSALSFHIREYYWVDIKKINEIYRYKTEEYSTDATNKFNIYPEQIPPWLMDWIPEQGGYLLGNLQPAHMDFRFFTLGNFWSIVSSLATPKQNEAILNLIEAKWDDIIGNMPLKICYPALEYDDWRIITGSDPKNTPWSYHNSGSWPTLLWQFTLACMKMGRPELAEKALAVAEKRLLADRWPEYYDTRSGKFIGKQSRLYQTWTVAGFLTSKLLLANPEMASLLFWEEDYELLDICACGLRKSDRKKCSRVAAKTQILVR

At-A/N-InvG = biological target: T2, At-A/N-InvG (Arabidopsis thaliana, UniProt Q9LQF2); test: as above; format: biochemical
T2 sequence (Q9LQF2 1-551): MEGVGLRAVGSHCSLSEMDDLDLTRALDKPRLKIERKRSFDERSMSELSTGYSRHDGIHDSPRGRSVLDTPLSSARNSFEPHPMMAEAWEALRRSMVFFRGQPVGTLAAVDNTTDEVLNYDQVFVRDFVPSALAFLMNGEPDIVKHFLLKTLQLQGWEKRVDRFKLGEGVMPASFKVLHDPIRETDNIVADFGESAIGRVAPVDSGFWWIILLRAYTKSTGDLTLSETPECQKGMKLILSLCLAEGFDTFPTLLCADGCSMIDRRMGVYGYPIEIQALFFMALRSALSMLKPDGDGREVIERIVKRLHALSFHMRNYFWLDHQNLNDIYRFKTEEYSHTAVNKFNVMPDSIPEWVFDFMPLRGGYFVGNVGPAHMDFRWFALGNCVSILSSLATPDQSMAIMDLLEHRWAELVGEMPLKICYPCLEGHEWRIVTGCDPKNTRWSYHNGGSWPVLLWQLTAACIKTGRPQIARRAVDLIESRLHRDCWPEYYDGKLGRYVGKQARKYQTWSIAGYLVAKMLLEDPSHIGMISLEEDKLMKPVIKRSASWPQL

With `NC(CO)(CO)CO` [TRIS] the “activity vs TRIS concentration” value (At-A/N-InvA) was “A typical inhibitory effect of TRIS on At-A/N-InvA activity was found” and the IC50 (At-A/N-InvG) was 25 to 30 mM.
